In patent US8227510B2, “Combine use of pterostilbene and quercetin for the production of cancer treatment medicaments” (Universitat de Valencia, priority 2004, dated 2012):
Marks after values point to notes of the source that are not given here.

Legend:
[1] = test system: Bcl-2; assay: Intracellular levels of Bcl-2 in B16M-F10 cells (enzyme immunoassay); assay type: cell-based, mouse; settings: t-PTER 40 μM, QUER 20 μM, 60 minutes at 6, 30 and 54 hours, none 35 ± 5
Description: The Tet-off gene expression system (Clontech, Palo Alto, Calif., USA) was used for inserting the mouse bcl-2 gene and transfecting the B16M-F10 cells, as described previously (26) and following the manufacturer's instructions. The protein Bcl-2 was quantified in the soluble cytosolic fraction by enzyme immunoassay (27) using a test based on a monoclonal antibody from Sigma (San Luis, Mo., USA) (a Bcl-2 unit was defined as the amount of Bcl-2 protein in 1000 non-transfected B16M-F10 cells).
(§1) This methodology makes it possible for the effect of PTER and QUER to be studied in vivo. For this purpose, mice were inoculated with B16M-F10 control cells or B16M-F10/Tet-Bcl-2 which overexpressed Bcl-2. […] The number of adhering cells shown in the table was calculated at 60 minutes postinjection (no significant differences were found when the measurements were effected at 30, 120, 180, 240 or 360 minutes postinjection, data not shown). The number of intact cells was calculated at 6 hours postinjection. […] The growth of metastases in the liver was evaluated as stated in the corresponding section of the description, and in this case the mice were treated daily (×10 days) with t-PTER and/or QUER (20 mg/kg of body weight) administered i.v. (the data are mean values±SD corresponding to 25 mice per group). […]

[2] = test system: B16M-F10/Tet-Bcl-2; assay: Growth of hepatic metastases of B16M-F10/Tet-Bcl-2 in mice; assay type: in vivo; settings: 20 mg/kg i.v. daily x10 days; for Volume of metastases: none 25 ± 6; for Density of metastases: none 29 ± 5
Experimental: (§2) Hepatic metastases were induced by i.v. inoculations (portal vein), in anesthetized mice (Nembutal, 50 mg/kg i.p.), of 4×10^5 viable B16M-F10 cells suspended in 0.2 ml of DMEM. The mice were sacrificed by cervical dislocation 10 days after inoculation. The livers were fixed by immersion for 24 hours at 22° C. in 10% formaldehyde in PBS (pH 7.4), and were subsequently embedded in paraffin. The density of metastases (average number of foci/100 mm^3 of liver detected in fifteen sections of 10×10 mm^2 per liver) and the volume of metastases (average percentage of liver volume occupied by metastases) were determined as described previously (22).
(§3) This methodology makes it possible for the effect of PTER and QUER to be studied in vivo. For this purpose, mice were inoculated with B16M-F10 control cells or B16M-F10/Tet-Bcl-2 which overexpressed Bcl-2. Both subgroups of cells were cultivated beforehand in the absence or in the presence of t-PTER and QUER. B16M-F10 cells were cultivated for 72 hours. t-RESV (12 μM), t-PTER (40 μM), and QUER (20 μM) were added at 6, 30 and 54 hours of culture time, and were present in each case for just 60 minutes. Then they were removed from the culture flasks by washing (3 times with PBS) and the medium was renewed. The levels of Bcl-2 in the B16M-F10 control cells and cells treated with Tet-Bcl-2 were 24±5 and 105±14 units/mg of protein, respectively (n=5 in each case, P<0.01). The number of adhering cells shown in the table was calculated at 60 minutes postinjection (no significant differences were found when the measurements were effected at 30, 120, 180, 240 or 360 minutes postinjection, data not shown). The number of intact cells was calculated at 6 hours postinjection. The experimental microscopy data in vivo are mean values±SD corresponding to 4-5 different experiments. The growth of metastases in the liver was evaluated as stated in the corresponding section of the description, and in this case the mice were treated daily (×10 days) with t-PTER and/or QUER (20 mg/kg of body weight) administered i.v. (the data are mean values±SD corresponding to 25 mice per group). A similar method and equal number of mice per group were used for evaluating the survival of the carrier animals. The test of significance relates, in all the groups, to comparison between cases with PTER and/or QUER and cases without additions (*P<0.05 and **P<0.01), and to comparison between the B16M-F10/Tet-Bcl-2 cells with the B16M-F10 control cells (^+P<0.05, ^++P<0.01). […] This is the first time that the combined administration in vivo of natural polyphenols has induced inhibition of metastatic growth of a highly malignant tumor and an increase in the survival of the carrier.

[3] = test system: B16M-F10/Tet-Bcl-2; assay: Survival of mice carrying B16M-F10/Tet-Bcl-2 metastases; assay type: in vivo; settings: 20 mg/kg i.v. daily, none 12 ± 1
Experimental: as §2
as §1, with “vivo.” for “vivo. For this purpose, mice were inoculated with B16M-F10 control cells or B16M-F10/Tet-Bcl-2 which overexpressed Bcl-2.”

[4] = test system: B16M-F10 cells; assay: Levels of free polyphenols in the incubation medium of B16M-F10 cultures; assay type: in vitro ADME; settings: throughout the culture time
[5] = test system: B16M-F10; assay: Growth of hepatic metastases of B16M-F10 in mice; assay type: in vivo; settings: 20 mg/kg i.v. daily x10 days; for Volume of metastases: none 22 ± 4; for Density of metastases: none 27 ± 5
Experimental: as §2, §3

[6] = test system: B16M-F10; assay: Survival of mice carrying B16M-F10 metastases; assay type: in vivo; settings: for Survival of the carrier: B16M-F10, 20 mg/kg i.v. daily, none 13 ± 2
Experimental: as §2
This methodology makes it possible for the effect of PTER and QUER to be studied in vivo. For this purpose, mice were inoculated with B16M-F10 control cells or B16M-F10/Tet-Bcl-2 which overexpressed Bcl-2. Both subgroups of cells were cultivated beforehand in the absence or in the presence of t-PTER and QUER. B16M-F10 cells were cultivated for 72 hours. t-RESV (12 μM), t-PTER (40 μM), and QUER (20 μM) were added at 6, 30 and 54 hours of culture time, and were present in each case for just 60 minutes. Then they were removed from the culture flasks by washing (3 times with PBS) and the medium was renewed. The levels of Bcl-2 in the B16M-F10 control cells and cells treated with Tet-Bcl-2 were 24±5 and 105±14 units/mg of protein, respectively (n=5 in each case, P<0.01). The number of adhering cells shown in the table was calculated at 60 minutes postinjection (no significant differences were found when the measurements were effected at 30, 120, 180, 240 or 360 minutes postinjection, data not shown). The number of intact cells was calculated at 6 hours postinjection. […] The growth of metastases in the liver was evaluated as stated in the corresponding section of the description, and in this case the mice were treated daily (×10 days) with t-PTER and/or QUER (20 mg/kg of body weight) administered i.v. (the data are mean values±SD corresponding to 25 mice per group). […]

[7] = rabbits, i.v., cited from earlier work
[8] = test system: B16M-F10 cells / HSE; settings: as described previously (ref. 14); cited from earlier work
[9] = test system: B16M-F10 cells / HSE; settings: as described previously (ref. 14); cited from earlier work; remark: listed apart in the source
[10] = test system: VCAM-1; settings: cited from earlier work

| SMILES | Intracellular levels of Bcl-2 before inoculation [1] | Volume of metastases [2] | Density of metastases [2] | Survival of the carrier [3] | total levels of free polyphenols in the incubation medium (metabolism by cancer cells) [4] | Volume of metastases [5] | Density of metastases [5] | Survival of the carrier [6] | highest concentration in plasma ([7]; 5 minutes after administration) | time in which plasma concentration falls to ~1 μM [7] | effect on survival of the carrier host ([6]; B16M-F10 control cells, daily i.v. administration) | effect on HSE-induced cytotoxicity on the metastatic cells [8] | inhibition of adhesion of tumor cells to the endothelium [9] | concentration at which expression of VCAM-1 is inhibited [10] |
| --- | --- | --- | --- | --- | --- | --- | --- | --- | --- | --- | --- | --- | --- | --- |
| COc1cc(/C=C/c2ccc(O)cc2)cc(OC)c1 [PTER, pterostilbene] | 21 ± 4** units/mg protein | 15 ± 3** percentage of liver volume | 15 ± 3** number of foci/100 mm^3 | 12 ± 2 days | remained unchanged | 14 ± 4** percentage of liver volume | 18 ± 4** number of foci/100 mm^3 | 15 ± 2 days | – | – | – | – | – | – |
| O=c1c(O)c(-c2ccc(O)c(O)c2)oc2cc(O)cc(O)c12 [QUER, quercetin] | 9 ± 3** units/mg protein | 24 ± 5^++ percentage of liver volume | 26 ± 516^++ number of foci/100 mm^3 | 13 ± 2 days | remained unchanged | 12 ± 3** percentage of liver volume | 15 ± 4** number of foci/100 mm^3 | 15 ± 1 days | ~43 µM | 60 min | neither of these compounds significantly increased the survival | – | – | – |
| Oc1ccc(C=Cc2cc(O)cc(O)c2)cc1 [RESV, resveratrol, reference compound] | – | – | – | – | – | – | – | – | – | – | – | without increasing the HSE-induced cytotoxicity | ~47% | 1 µM |
